The results in this text go back to ChEMBL document CHEMBL4602719, “Discovery of Potent, Selective, and Orally Bioavailable Inhibitors of USP7 with In Vivo Antitumor Activity” (J Med Chem, 2020).

Molecules are shown by their SMILES.

The target of one series is Ataxin-3 (Homo sapiens, UniProt P54252). Description: Inhibition of human GST-tagged Ataxin-3 expressed in Escherichia coli assessed as cleavage of Ubiquitin-Rhodamine110-glycine to Ubiquitin and Rhodamine110-glycine using Ubiquitin-Rhodamine110-glycine as substrate by fluorescence based analysis.
The target of series [1] is Ubiquitin carboxyl-terminal hydrolase 21 (Homo sapiens, UniProt Q9UK80). Description: Inhibition of human GST-tagged USP21 CD (196 to 565 residues) expressed in Escherichia coli assessed as cleavage of Ubiquitin-Rhodamine110-glycine to Ubiquitin and Rhodamine110-glycine using Ubiquitin-Rhodamine110-glycine as substrate by fluorescence based analysis.
In series [2] the target is Ubiquitin carboxyl-terminal hydrolase 36 (Homo sapiens, UniProt Q9P275). Description: Inhibition of human GST-tagged USP36 CD (81 to 461 residues) expressed in Escherichia coli assessed as cleavage of Ubiquitin-Rhodamine110-glycine to Ubiquitin and Rhodamine110-glycine using Ubiquitin-Rhodamine110-glycine as substrate by fluorescence based analysis.
Series [3] addresses Ubiquitin carboxyl-terminal hydrolase 7 (Homo sapiens, UniProt Q93009). Briefly: Inhibition of USP7 in human RKO cells transfected with p53 luciferase reporter vector assessed as increase in p53-dependent luciferase activity measured after 18 hrs by BrightGlo luciferase assay. Type of series: cell-based.
In series [4] the target is OTU domain-containing protein 3 (Homo sapiens, UniProt Q5T2D3). Description: Inhibition of human GST-tagged OTUD3 expressed in Escherichia coli assessed as cleavage of Ubiquitin-Rhodamine110-glycine to Ubiquitin and Rhodamine110-glycine using Ubiquitin-Rhodamine110-glycine as substrate by fluorescence based analysis.
In series [5] the target is Ubiquitin carboxyl-terminal hydrolase BAP1 (Homo sapiens, UniProt Q92560). Description: Inhibition of human GST-tagged BAP1 expressed in Escherichia coli assessed as cleavage of Ubiquitin-Rhodamine110-glycine to Ubiquitin and Rhodamine110-glycine using Ubiquitin-Rhodamine110-glycine as substrate by fluorescence based analysis.
The target of series [6] is Ubiquitin carboxyl-terminal hydrolase 5 (Homo sapiens, UniProt P45974). Description: Inhibition of human 6His-tagged USP5 expressed in Escherichia coli assessed as cleavage of Ubiquitin-Rhodamine110-glycine to Ubiquitin and Rhodamine110-glycine using Ubiquitin-Rhodamine110-glycine as substrate by fluorescence based analysis.
In a further series the target is Josephin-2 (Homo sapiens, UniProt Q8TAC2). Briefly: Inhibition of human 6His-tagged JOSD2 expressed in Escherichia coli assessed as cleavage of Ubiquitin-Rhodamine110-glycine to Ubiquitin and Rhodamine110-glycine using Ubiquitin-Rhodamine110-glycine as substrate by fluorescence based analysis.
Series [7] can be described thus: AUC in Sprague-Dawley rat at 2 mg/kg, po. It is filed as ADME, organism-based. As to conditions: in vivo.
For series [8], the target named is Ubiquitin carboxyl-terminal hydrolase 27 (Homo sapiens, UniProt A6NNY8). Description: Inhibition of human DAC-tagged USP27X expressed in Escherichia coli assessed as cleavage of […]-linked di-ubiquitin to mono-ubiquitin using di-ubiquitin as substrate by mass spectrometry.
A short description of series [9]: Cytotoxicity against human RKO cells assessed as reduction in cellular ATP level measured after 5 days by CellTiter-Glo assay. It is filed as cell-based.
Series [10] concerns the target Ubiquitin carboxyl-terminal hydrolase 15 (Homo sapiens, UniProt Q9Y4E8). Description: Inhibition of human USP15 isoform 2 expressed in Escherichia coli assessed as cleavage of Ubiquitin-Rhodamine110-glycine to Ubiquitin and Rhodamine110-glycine using Ubiquitin-Rhodamine110-glycine as substrate by fluorescence based analysis.
Another series concerns the target Ataxin-3-like protein (Homo sapiens, UniProt Q9H3M9). Briefly: Inhibition of human 6His-tagged Ataxin-3L expressed in Escherichia coli assessed as cleavage of Ubiquitin-Rhodamine110-glycine to Ubiquitin and Rhodamine110-glycine using Ubiquitin-Rhodamine110-glycine as substrate by fluorescence based analysis.
Series [11] addresses OTU domain-containing protein 7B (Homo sapiens, UniProt Q6GQQ9). Description: Inhibition of cezanne (unknown origin).
For series [12], the target named is Ubiquitin carboxyl-terminal hydrolase 16 (Homo sapiens, UniProt Q9Y5T5). Description: Inhibition of USP16 (unknown origin).
For series [13], the target named is Ubiquitin thioesterase OTU1 (Homo sapiens, UniProt Q5VVQ6). Description: Inhibition of human GST-tagged OTU1 expressed in Escherichia coli assessed as cleavage of Ubiquitin-Rhodamine110-glycine to Ubiquitin and Rhodamine110-glycine using Ubiquitin-Rhodamine110-glycine as substrate by fluorescence based analysis.
Series [14] concerns the target Ubiquitin carboxyl-terminal hydrolase 9X (Homo sapiens, UniProt Q93008). Briefly: Inhibition of human GST-tagged USP9X CD (1554 to 1995 residues) expressed in Escherichia coli assessed as cleavage of Ubiquitin-Rhodamine110-glycine to Ubiquitin and Rhodamine110-glycine using Ubiquitin-Rhodamine110-glycine as substrate by fluorescence based analysis.
The target of series [15] is T1, Ubiquitin carboxyl-terminal hydrolase isozyme L3 (Homo sapiens, UniProt P15374).
T1 sequence (P15374 whole entry): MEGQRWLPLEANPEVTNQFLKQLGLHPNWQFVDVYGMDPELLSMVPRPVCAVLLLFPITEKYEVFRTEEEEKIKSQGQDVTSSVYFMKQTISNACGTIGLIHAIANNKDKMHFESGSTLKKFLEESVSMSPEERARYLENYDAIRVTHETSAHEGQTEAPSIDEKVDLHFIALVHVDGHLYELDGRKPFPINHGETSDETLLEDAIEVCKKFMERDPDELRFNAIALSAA
Description: Inhibition of human GST-tagged UCHL3 expressed in Escherichia coli assessed as cleavage of Ubiquitin-Rhodamine110-glycine to Ubiquitin and Rhodamine110-glycine using Ubiquitin-Rhodamine110-glycine as substrate by fluorescence based analysis.

The target of the next series is Cytochrome P450 3A4 (Homo sapiens, UniProt P08684). Description: Inhibition of CYP3A4 (unknown origin). Type of series: ADME.
The target in series [16] is Ubiquitin thioesterase OTUB2 (Homo sapiens, UniProt Q96DC9). Description: Inhibition of human GST-tagged OTUB2 expressed in Escherichia coli assessed as cleavage of Ubiquitin-Rhodamine110-glycine to Ubiquitin and Rhodamine110-glycine using Ubiquitin-Rhodamine110-glycine as substrate by fluorescence based analysis.
The nature of series [17]: Inhibition of human GST-tagged OTUD5 P177S mutant expressed in Escherichia coli assessed as cleavage of Ubiquitin-Rhodamine110-glycine to Ubiquitin and Rhodamine110-glycine using Ubiquitin-Rhodamine110-glycine as substrate by fluorescence based analysis.
The target of series [18] is Ubiquitin carboxyl-terminal hydrolase 25 (Homo sapiens, UniProt Q9UHP3). Briefly: Inhibition of human GST-tagged USP25 expressed in Escherichia coli assessed as cleavage of Ubiquitin-Rhodamine110-glycine to Ubiquitin and Rhodamine110-glycine using Ubiquitin-Rhodamine110-glycine as substrate by fluorescence based analysis.
The target in series [19] is Ubiquitin carboxyl-terminal hydrolase 4 (Homo sapiens, UniProt Q13107). Description: Inhibition of human 6His-tagged USP4 expressed in Escherichia coli assessed as cleavage of Ubiquitin-Rhodamine110-glycine to Ubiquitin and Rhodamine110-glycine using Ubiquitin-Rhodamine110-glycine as substrate by fluorescence based analysis.
Series [20] deals with Ubiquitin carboxyl-terminal hydrolase 2 (Homo sapiens, UniProt O75604). Description: Inhibition of human GST-tagged USP2 isoform 4 expressed in Escherichia coli assessed as cleavage of Ubiquitin-Rhodamine110-glycine to Ubiquitin and Rhodamine110-glycine using Ubiquitin-Rhodamine110-glycine as substrate by fluorescence based analysis.

Chain of Ataxin-3 (P54252 whole entry, the tested form may be a part): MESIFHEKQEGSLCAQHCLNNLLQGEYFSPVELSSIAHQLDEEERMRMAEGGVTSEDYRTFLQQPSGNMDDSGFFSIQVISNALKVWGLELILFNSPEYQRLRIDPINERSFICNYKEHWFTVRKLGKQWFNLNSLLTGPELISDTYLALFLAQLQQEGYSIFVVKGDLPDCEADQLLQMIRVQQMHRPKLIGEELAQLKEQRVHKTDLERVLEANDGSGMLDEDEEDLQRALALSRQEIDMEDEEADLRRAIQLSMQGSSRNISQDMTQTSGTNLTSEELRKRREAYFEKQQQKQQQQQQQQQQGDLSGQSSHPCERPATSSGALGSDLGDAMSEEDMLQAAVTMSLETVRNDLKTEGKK
Chain of OTU domain-containing protein 3 (Q5T2D3 whole entry, the tested form may be a part): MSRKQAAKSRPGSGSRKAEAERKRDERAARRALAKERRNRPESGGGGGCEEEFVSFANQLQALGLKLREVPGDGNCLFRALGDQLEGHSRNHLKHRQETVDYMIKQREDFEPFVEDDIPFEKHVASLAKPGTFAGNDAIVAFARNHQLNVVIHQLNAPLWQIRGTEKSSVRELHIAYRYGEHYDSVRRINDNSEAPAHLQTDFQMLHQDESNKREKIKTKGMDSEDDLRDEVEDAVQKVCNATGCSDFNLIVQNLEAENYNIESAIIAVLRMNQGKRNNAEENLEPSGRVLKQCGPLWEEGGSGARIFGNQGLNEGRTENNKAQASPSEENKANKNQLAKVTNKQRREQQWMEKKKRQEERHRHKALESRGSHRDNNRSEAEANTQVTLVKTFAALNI
Chain of Ubiquitin carboxyl-terminal hydrolase 36 (Q9P275 whole entry, the tested form may be a part): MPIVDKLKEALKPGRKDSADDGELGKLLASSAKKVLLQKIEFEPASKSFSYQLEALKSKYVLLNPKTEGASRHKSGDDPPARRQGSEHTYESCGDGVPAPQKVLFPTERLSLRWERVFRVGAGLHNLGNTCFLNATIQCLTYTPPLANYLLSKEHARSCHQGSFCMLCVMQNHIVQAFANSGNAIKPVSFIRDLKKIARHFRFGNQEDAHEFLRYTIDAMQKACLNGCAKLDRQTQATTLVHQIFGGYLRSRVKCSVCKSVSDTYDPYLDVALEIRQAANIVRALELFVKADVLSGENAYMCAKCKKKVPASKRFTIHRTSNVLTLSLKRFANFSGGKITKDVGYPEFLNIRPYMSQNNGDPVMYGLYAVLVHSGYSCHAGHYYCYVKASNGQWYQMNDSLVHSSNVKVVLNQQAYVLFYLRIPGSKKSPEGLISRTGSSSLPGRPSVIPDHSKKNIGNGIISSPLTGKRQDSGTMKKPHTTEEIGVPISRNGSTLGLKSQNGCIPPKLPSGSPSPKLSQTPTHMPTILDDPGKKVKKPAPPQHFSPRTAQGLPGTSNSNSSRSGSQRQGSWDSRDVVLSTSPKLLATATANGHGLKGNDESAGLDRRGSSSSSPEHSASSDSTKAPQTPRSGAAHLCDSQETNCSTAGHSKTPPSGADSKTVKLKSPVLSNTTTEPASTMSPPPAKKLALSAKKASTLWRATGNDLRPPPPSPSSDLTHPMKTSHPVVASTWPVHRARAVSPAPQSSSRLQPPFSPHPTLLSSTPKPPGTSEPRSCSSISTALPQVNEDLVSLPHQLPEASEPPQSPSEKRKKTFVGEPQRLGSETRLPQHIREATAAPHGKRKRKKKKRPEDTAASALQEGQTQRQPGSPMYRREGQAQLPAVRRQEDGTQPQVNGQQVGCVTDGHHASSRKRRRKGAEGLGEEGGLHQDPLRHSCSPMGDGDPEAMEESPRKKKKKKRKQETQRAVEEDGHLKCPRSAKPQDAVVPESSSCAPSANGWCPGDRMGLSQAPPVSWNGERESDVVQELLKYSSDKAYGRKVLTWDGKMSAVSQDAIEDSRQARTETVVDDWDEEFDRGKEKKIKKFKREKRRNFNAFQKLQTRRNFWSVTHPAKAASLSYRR
Chain of Ubiquitin carboxyl-terminal hydrolase 9X (Q93008 whole entry, the tested form may be a part): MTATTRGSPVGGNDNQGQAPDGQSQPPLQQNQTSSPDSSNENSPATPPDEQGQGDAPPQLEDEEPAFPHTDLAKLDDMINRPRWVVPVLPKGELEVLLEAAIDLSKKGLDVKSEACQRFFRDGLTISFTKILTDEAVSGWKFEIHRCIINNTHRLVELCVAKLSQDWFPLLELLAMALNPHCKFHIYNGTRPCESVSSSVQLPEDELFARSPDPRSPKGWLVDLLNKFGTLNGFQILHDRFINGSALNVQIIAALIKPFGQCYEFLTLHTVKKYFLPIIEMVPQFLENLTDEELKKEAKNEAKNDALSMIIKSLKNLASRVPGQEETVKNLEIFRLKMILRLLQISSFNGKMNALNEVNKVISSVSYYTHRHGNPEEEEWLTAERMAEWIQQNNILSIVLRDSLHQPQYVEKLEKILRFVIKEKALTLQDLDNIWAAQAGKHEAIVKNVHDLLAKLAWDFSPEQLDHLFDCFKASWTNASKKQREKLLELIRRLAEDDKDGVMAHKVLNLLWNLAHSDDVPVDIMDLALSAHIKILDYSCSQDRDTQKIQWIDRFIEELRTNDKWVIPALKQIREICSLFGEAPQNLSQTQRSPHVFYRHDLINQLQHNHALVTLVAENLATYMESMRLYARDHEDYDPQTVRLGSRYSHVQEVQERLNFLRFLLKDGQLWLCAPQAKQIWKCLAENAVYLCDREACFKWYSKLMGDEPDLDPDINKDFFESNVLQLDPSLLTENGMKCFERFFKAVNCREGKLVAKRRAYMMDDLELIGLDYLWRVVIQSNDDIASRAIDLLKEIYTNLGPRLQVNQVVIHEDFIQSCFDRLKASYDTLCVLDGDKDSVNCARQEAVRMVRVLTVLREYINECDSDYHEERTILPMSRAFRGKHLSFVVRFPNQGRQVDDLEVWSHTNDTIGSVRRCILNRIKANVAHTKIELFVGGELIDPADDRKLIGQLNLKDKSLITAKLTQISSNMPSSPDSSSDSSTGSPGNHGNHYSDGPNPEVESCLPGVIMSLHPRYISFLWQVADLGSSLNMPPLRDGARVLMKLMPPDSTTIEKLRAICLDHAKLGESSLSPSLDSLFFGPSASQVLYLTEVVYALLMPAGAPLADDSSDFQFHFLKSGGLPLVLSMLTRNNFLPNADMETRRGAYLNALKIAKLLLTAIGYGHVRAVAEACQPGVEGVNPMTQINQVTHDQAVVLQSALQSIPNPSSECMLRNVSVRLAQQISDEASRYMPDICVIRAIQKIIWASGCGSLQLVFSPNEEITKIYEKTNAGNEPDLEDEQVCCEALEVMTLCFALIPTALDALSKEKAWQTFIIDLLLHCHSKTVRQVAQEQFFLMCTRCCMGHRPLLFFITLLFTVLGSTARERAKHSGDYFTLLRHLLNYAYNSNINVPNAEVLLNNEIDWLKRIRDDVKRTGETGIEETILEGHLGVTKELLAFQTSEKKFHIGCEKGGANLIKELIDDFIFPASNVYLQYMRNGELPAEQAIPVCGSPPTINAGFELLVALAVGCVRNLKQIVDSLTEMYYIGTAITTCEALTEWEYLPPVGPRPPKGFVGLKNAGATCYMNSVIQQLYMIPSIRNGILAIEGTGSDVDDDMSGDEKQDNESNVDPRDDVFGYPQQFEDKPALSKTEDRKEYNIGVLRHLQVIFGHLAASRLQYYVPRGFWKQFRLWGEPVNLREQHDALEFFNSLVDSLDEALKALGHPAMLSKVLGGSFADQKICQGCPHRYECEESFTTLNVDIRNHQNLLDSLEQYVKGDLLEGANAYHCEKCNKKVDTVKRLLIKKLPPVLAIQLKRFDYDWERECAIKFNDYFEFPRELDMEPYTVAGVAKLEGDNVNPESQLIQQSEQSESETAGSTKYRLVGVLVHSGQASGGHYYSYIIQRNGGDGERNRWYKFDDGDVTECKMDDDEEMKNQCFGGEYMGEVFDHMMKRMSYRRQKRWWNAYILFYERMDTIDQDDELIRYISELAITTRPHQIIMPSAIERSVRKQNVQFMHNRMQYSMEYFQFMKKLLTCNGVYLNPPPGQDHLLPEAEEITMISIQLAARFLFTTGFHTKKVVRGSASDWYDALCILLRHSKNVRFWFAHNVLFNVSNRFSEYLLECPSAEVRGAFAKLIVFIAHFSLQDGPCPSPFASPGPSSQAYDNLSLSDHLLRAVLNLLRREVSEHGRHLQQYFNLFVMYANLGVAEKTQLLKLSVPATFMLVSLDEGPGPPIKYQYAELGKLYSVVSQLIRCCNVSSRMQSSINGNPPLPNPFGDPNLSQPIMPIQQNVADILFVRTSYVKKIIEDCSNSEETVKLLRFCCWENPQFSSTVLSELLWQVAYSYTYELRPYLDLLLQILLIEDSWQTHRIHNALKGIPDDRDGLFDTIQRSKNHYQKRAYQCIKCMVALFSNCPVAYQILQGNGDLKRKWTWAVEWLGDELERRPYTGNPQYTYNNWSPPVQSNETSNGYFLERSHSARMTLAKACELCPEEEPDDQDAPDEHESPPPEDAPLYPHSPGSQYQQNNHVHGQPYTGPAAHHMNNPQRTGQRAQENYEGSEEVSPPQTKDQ
Chain of Ubiquitin thioesterase OTUB2 (Q96DC9 whole entry): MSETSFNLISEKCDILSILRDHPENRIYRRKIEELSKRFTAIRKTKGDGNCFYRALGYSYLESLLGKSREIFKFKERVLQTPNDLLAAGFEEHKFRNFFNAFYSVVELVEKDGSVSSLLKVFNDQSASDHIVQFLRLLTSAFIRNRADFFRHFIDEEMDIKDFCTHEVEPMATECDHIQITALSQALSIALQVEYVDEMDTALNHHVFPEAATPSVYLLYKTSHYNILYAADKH
Chain of Josephin-2 (Q8TAC2 whole entry): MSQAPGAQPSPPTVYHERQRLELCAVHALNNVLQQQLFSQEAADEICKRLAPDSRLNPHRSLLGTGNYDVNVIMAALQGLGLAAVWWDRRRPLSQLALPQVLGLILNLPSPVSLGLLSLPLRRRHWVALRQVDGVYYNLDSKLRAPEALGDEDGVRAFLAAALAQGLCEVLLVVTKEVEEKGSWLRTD

Turning to `Cc1cc(Cl)cc(-c2ccnc3cc(CN4C(=O)C5C(C4=O)C5(C)C)sc23)c1O[C@@H]1CCNC[C@@H]1C` (some centres undefined), the IC50 (at Ataxin-3; in series [1]; in [2]; in series [4]; in [5]; in [6]) was over 10 µM throughout. Moreover, the IC50 (at Josephin-2; in series [8]; in series [10]; at Ataxin-3-like protein; in series [11]; in [12]) was over 10 µM throughout. For the same compound, the IC50 in [13], in [14], in [15], in series [16], in series [17] and in series [18] was over 10 µM in each case. The IC50 in series [19] and in [20] was over 10 µM in each case. In series [3], the EC50 is 65 nM. For the same compound, in series [7], the AUC stood at 4700 ng·h/mL. For the same compound, the CC50 at 120 h in [9] was 3.4 µM. The compound also returned an INH at Cytochrome P450 3A4 of 6.2 µM.

As usually defined, the IC50 is the midpoint of a concentration-inhibition curve. By EC50 is commonly meant the midpoint of the concentration-response curve. The term AUC denotes concentration integrated over time. A low value points to low exposure. In general, CC50 refers to the concentration that lowers cell viability or growth by half.
